Source: PMC8861050, “Design, synthesis and evaluation of novel 2-oxoindoline-based acetohydrazides as antitumor agents” (Scientific Reports, 2022)
Where two headings read alike, the source gives them in different places.

Tests used:
PC3 (prostate cancer) [1] = tested on: PC3 (prostate cancer); parameters: method as in PMID 30054973; details: positive control, for relative comparison; read-out: Cytotoxicity (IC50) PC3; cited from earlier work
NCI-H23 (lung cancer) [2] = tested on: NCI-H23 (lung cancer); parameters: method as in PMID 30054973; details: positive control, for relative comparison; read-out: Cytotoxicity (IC50) NCI-H23; cited from earlier work
SW620 (colon cancer) = assay: SRB cytotoxicity assay, SW620; type: cell-based; details: Homo sapiens, SW-620, 48 h incubation, mean ± SEM of 3 independent experiments
Excerpt: (§1) Three human cancer cell lines: colon cancer (SW620), prostate cancer (PC3), and lung cancer (NCI-H23) were used for sceening the cytotoxicity of the compounds. The cancer cells were purchased from American Type Culture Collection (Manassas, VA, USA). Other reagents/media for cell culture were obtained from GIBCO (Grand Island, New York, USA). The testing cancer cells were culture in Dulbecco’s Modified Eagle Medium until confluence. Then, they were trypsinized and suspended at the level of 3 × 10^4 cells/mL of cell culture medium. On day 0, cancer cells were seeded at a volume of 180 µL/well of 96-well plates and incubated for 24 h at 37 °C in a 5% CO2 incubator. On day 1, 20 µL of various concentrations of testing compounds were added to each well of the 96-well plates. Chemicals were dissolved in dimethyl sulfoxide (DMSO, stock) and diluted in culture medium (1% DMSO) before adding to the culture. After 48 h incubation, the sulforhodamine B assay was used for cell density determination with slight modifications[22]–[26]. The Probits were used for the calculation of IC50 values. The reported IC50 were the averages of three independent screening (SD ≤ 10%)[27].
(§2) Two series of compounds synthesized (4a–p and 5a–f) were evaluated for their cytotoxicity against three human cancer cell lines, including SW620 (colon cancer), PC3 (prostate cancer), NCI-H23 (lung cancer), using SRB method as described previously[22] with slight modifications[23]–[26].

PC3 (prostate cancer) [3] = assay: SRB cytotoxicity assay, PC3; type: cell-based; details: Homo sapiens, 48 h incubation, mean ± SEM of 3 independent experiments
Excerpt: as §1, §2

NCI-H23 (lung cancer) [4] = assay: SRB cytotoxicity assay, NCI-H23; type: cell-based; details: Homo sapiens, 48 h incubation, mean ± SEM of 3 independent experiments
Excerpt: as §1, §2

[5] = Cytotoxicity on normal mesenchymal stem cells; type: cell-based; details: human bone marrow-derived mesenchymal stem cells; mean ± SEM; read-out: Cytotoxicity (IC50) MSCs
Description: Overally, 5-fluorinated compounds (4i–p and 5d–f) were slightly more cytotoxic than non-fluorinated ones (4a–h, 5a–c). For compounds in series 4a–p, it was observed that, electron-releasing substituents (–OCH3, OH) were generally better than electron-withdrawing groups (–Cl) for cytotoxicity. Especially, compounds with 2-OH substituents produced the best cytotoxicity. The addition of either 4-OCH3 or 3-allyl groups further enhanced cytotoxicity of the related compounds (4g, 4h and 4o, 4p).

caspase-3 = target: T1, caspase-3 (Homo sapiens, UniProt P42574); assay: Caspase-3 activation assay in U937 cell extract; type: cell-based; details: U937 cells, 24 h, 50 µM
T1 construct: endogenous in cells; host or cells: U937 human lymphoma cells
T1 sequence (P42574 1-277): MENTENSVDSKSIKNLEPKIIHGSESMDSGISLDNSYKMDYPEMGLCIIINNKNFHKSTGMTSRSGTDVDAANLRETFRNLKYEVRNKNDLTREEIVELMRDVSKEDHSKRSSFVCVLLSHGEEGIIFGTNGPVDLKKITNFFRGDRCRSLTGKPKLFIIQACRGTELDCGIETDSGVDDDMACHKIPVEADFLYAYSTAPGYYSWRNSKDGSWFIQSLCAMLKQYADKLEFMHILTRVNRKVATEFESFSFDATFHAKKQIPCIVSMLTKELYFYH
Description: Caspase-3 activation assay
Caspase activity was measured by using caspase 3 assay kit according to the manufacturer’s instructions (abcam, MA, USA). U937 human lymphoma cells (5 × 10^5/mL per well) were plated in 6-well culture plates and allowed to grow for 24 h. The cells were treated with compounds for 24 h, and then harvested. The harvested cells were washed twice with ice-cold PBS and treated with lysis buffer included in the kit. Cell lysate (100 µg/50 µL) was mixed with 50 µL of 2 × reaction buffer and 5 µL of DEVD-p-NA substrate as the instruction of caspase-3 assay kit (Abcam, cat. N. ab39401). […] was measured after one-hour incubation.
Next, we selected 5 representative compounds, including 4f, 4h, 4n, 4o and 4p, to investigate their effects on the caspase activity, cell cycle, and apoptosis. […] Thus, we used the extract of U937 cells in caspase-3 activation assay, referring to our previous study. […] However, our compounds unexpectedly were not recorded to activate caspase-3 activity. […] Next, we investigated the effect of PAC-1 and our chemicals on cell cycle and apoptosis by using U937 cells. In the cell cycle analysis, U937 cells were treated with 50 µM of compounds for 24 h, stained with propidium iodide (PI) in the presence of RNase, and then analyzed for DNA content by using flow cytometry. PAC-1 was used in parallel as a positive control.

[6] = tested on: U937 human lymphoma cells; assay: Cell cycle analysis (PI, flow cytometry); type: cell-based; details: 50 µM, 24 h
Description: U937 human lymphoma cells (5 × 10^5/mL per well) were plated in 6-well culture plates and allowed to grow for 24 h. In our first experiment, we examined the effects of 4f, 4h, 4n, 4o, 4p, and PAC-1 on cell cycles at 50 µM. In the second experiment, we examined the dose-dependent effect of 4o at 5, 10, and 30 µM and PAC-1 at 30 µM on cell cycles. The cells were treated with compounds for 24 h, and then harvested. The harvested cells were washed twice with ice-cold PBS, fixed in 75% ice-cold ethanol, and stained with propidium iodide (PI) in the presence of RNase at room temperature for 30 min. The stained cells were analyzed for DNA content using a FACScalibur flow cytometer (BD Biosciences, San Jose, CA, USA) and the data were processed using Cell Quest Pro software (BD Biosciences).
(§3) Figure 3 Cell cycle analysis after treatment with some compounds. U937 human lymphoma cells were treated with compounds (50 µM) for 24 h. The harvested cells were stained with propidium iodide (PI) in the presence of RNase and then were analyzed for DNA content by using flow cytometry. Ten thousand cells were acquired (n = 3). UN untreated, VH vehicle (DMSO. 0.1%). Representative histograms (A) and bar graphs (B) are shown. p values were calculated using one-way ANOVA in GraphPad Software (San Diego, CA, USA). *p < 0.01 vs VH control.
as §3, with “Figure 4” for “Figure 3”, “analysis under” for “analysis after”, “with different concentrations of compound 4o.” for “with some compounds.”, “with compound 4o at 5, 10 and 30 µM or PAC-1 (30” for “with compounds (50”

SW620 cells = assay: Morphology changes of treated cells; type: cell-based, human; details: 24 h treatment (50 μM; 4o 5, 10, 30 μM; PAC-1 30 μM)
Description: (§4) Figure 7 Morphology changes of cells treated with compound 4f, 4h, 4n, 4o, 4p or PAC-1. SW620 at 2.5 × 10^5 cells/mL (500 µL in 24 well) were incubated for 24 h and then further treated with compounds or PAC-1 (50 μM) for 24 h. Cells were photographed using an Imaging Device (Celldiscoverer 7) with ×20 (A) and ×40 (B) lens. Scale bar: […]. UN untreated, VH vehicle (DMSO. 0.1%). Representative images are shown.
as §4, with “Figure 8” for “Figure 7”, “compound 4o” for “compound 4f, 4h, 4n, 4o, 4p”, “with 4o (5, 10, and 30 μM)” for “with compounds”, “PAC-1 (30” for “PAC-1 (50”

U937 cells = tested on: U937 cells; parameters: method as in PMID 34674294; details: 48 h, as reported, read-out: IC50 in 48-h-cytotoxicity assay; cited from earlier work

SMILES	IC50 (PC3 (prostate cancer) [1])	IC50 (NCI-H23 (lung cancer) [2])	IC50 (SW620 (colon cancer))	IC50 (PC3 (prostate cancer) [3])	IC50 (NCI-H23 (lung cancer) [4])	IC50 [5]	Caspase-3 activation (caspase-3)	Effect on cell cycle distribution [6]	Cellular morphology (SW620 cells)	IC50 (U937 cells)
O=c1[nH]cc(F)c(=O)[nH]1 [Compound 5-FU, 5-Fluorouracil]	13.6 ± 0.46 µM	13.5 ± 3.92 µM	–	–	–	–	–	–	–	–
C=CCc1cccc(/C=N/NC(=O)CN2CCN(Cc3ccccc3)CC2)c1O [PAC-1, reference compound]	–	–	5.43 ± 0.18 µM	4.11 ± 0.39 µM	5.11 ± 0.22 µM	9.22 ± 0.12 µM	activated caspase-3	accumulation of cells in G0/G1 phase	showed morphology of apoptotic cells	8.47 µM
